From ChEMBL document CHEMBL5506010, “Butyrylcholinesterase-Activated Near-Infrared Fluorogenic Probe for In Vivo Theranostics of Alzheimer's Disease” (J Med Chem, 2024)
The source made the active and inactive calls. The rule behind the calls is not given here.

What was measured:
Mus musculus [1] = experiment: Antialzheimer activity in APP/PS1 transgenic AD mouse model assessed as improvement in recognition index for novel objects administered intravenously once every 2 days for 10 times and measured on day 28 by Novel object recognition test; format: functional, organism-based; conditions: route iv, time 28.0 day
Mus musculus [2] = experiment: Antialzheimer activity in APP/PS1 transgenic AD mouse model assessed as improvement in learning administered intravenously once every 2 days for 10 times followed by morris water maze training from day 21 to 25 and measured on day 26 by Morris water maze test; format: functional, organism-based; conditions: route iv, time 26.0 day
Homo sapiens = species: Homo sapiens; experiment: Binding affinity to ALP (unknown origin) by fluorescence analysis
[3] = Drug uptake in brain of 7-month old APP/[…] transgenic AD-mouse model assessed as increase in fluorescence at 100 uM, iv measured after 1 hrs by fluorescence imaging analysis; format: ADME, organism-based; conditions: in vivo
[4] = Toxicity in APP/PS1 transgenic AD mouse model assessed as heart damage administered intravenously once every 2 days for 10 times and measured on day 30 by H and E staining based analysis; format: tissue-based; conditions: in vivo, iv, 720 h, time 30 day
[5] = Drug uptake in brain of 8 months old AD-mouse model assessed as increase in fluorescence at 100 uM, iv by fluorescence scanning analysis; format: ADME, organism-based; conditions: in vivo
Acetylcholinesterase [6] = biological target: T1, Acetylcholinesterase (Homo sapiens, UniProt P22303); experiment: Inhibition of human AChE using acetylthiocholine iodide as substrate at 10 uM preincubated for 5 mins followed by substrate addition and measured immediately by Ellmans method relative to control
HT-22 [7] = experiment: Inhibition of H2O2-induced ROS release in mouse HT-22 cells assessed as decrease in green fluorescence at 1 to 10 uM preincubated for 1 hrs followed by H2O2 addition and measured after 24 hrs by DCFH-DA based confocal laser scanning microscopic analysis; format: functional, cell-based; conditions: dose 1-10 µM, time 25.0 hrs
Cholinesterase [8] = biological target: T2, Cholinesterase (Homo sapiens, UniProt P06276); experiment: Binding affinity to BChE (unknown origin) in PBS assessed as fold change in fluorescence intensity at 710 nm by fluorescence spectra analysis
[9] = Stability of compound in male ICR mouse plasma at 100 uM, iv measured after 30 mins by fluorescence microplate reader; format: ADME, organism-based; conditions: 0.5 h
SH-SY5Y = experiment: Neuroprotective activity against amyloid-beta (1 to 42)-induced human SH-SY5Y cells assessed as increase in ACh level in cell lysate at 10 to 20 uM incubated for 24 hrs by ELISA; format: functional, cell-based; conditions: dose 10-20 µM
Acetylcholinesterase [10] = biological target: T1, Acetylcholinesterase; experiment: Binding affinity to AChE (unknown origin) by fluorescence analysis
[11] = Drug uptake in brain of 6 weeks old AD-mouse model assessed as increase in fluorescence at 100 uM, iv preadministered with tacrine for 4 hrs followed by compound administration by fluorescence scanning analysis; format: ADME, organism-based; conditions: in vivo
[12] = Permeability of compound incubated for 18 hrs by PAMPA-BBB based UV plate spectroscopic reader analysis; format: ADME; conditions: read-out: permeability
[13] = Drug uptake in HEK293T cells transfected with BChE siRNA assessed as increase in fluorescence intensity by fluorescence based confocal laser scanning microscopic analysis; format: ADME, cell-based; conditions: human, hek-293t
[14] = Drug uptake in brain of 8 months old AD-mouse model assessed as increase in fluorescence at 100 uM, iv preadministered with tacrine for 4 hrs followed by compound administration by fluorescence scanning analysis; format: ADME, organism-based; conditions: in vivo
Cholinesterase [15] = biological target: T2, Cholinesterase; experiment: Binding affinity to BChE (unknown origin) assessed as enzyme mediated compound hydrolysis measured after 1 min by HPLC analysis relative to control; set-up: scale not given: the % may be the effect or the level left
Mus musculus [16] = experiment: Antialzheimer activity in APP/PS1 transgenic AD mouse model assessed as improvement in NC scores administered intravenously once every 2 days for 10 times and measured on day 27 by Nest construction test; format: functional, organism-based; conditions: route iv, time 27.0 day
Mus musculus [17] = experiment: Antialzheimer activity in APP/PS1 transgenic AD mouse model assessed as improvement in memory administered intravenously once every 2 days for 10 times and measured on day 26 by Y maze test; format: functional, organism-based; conditions: route iv, time 26.0 day
Cholinesterase [18] = biological target: T2, Cholinesterase; experiment: Binding affinity to BChE (unknown origin) assessed as enzyme mediated compound hydrolysis measured after 5 min by HPLC analysis relative to control; set-up: scale not given: the % may be the effect or the level left
[19] = Drug accumulation in brain of APP/PS1 transgenic AD-mouse model at 100 uM, iv measured at 5 to 60 mins by fluorescence imaging analysis; format: ADME, organism-based; conditions: in vivo, time 5-60 min
HT-22 [20] = experiment: Inhibition of H2O2-induced ROS release in mouse HT-22 cells assessed as increase in red fluorescence at 1 to 10 uM preincubated for 1 hrs followed by H2O2 addition and measured after 24 hrs by DCFH-DA based confocal laser scanning microscopic analysis; format: functional, cell-based; conditions: dose 1-10 µM, time 25.0 hrs
Cholinesterase [21] = biological target: T2, Cholinesterase; experiment: Binding affinity to BChE (unknown origin) in PBS assessed as red-shift in maximum absorption to 680 nm by UV/vis absorption analysis
Cholinesterase [22] = biological target: T2, Cholinesterase; experiment: Binding affinity to BChE (unknown origin) in PBS assessed as […] at 680 nm by UV/vis absorption analysis
PC-12 = experiment: Binding affinity to BChE in rat PC-12 cells assessed as increase in fluorescence intensity at 10 uM incubated for 24 hrs by fluorescence based confocal laser scanning microscopic analysis; format: cell-based

T2 sequence (P06276 whole entry): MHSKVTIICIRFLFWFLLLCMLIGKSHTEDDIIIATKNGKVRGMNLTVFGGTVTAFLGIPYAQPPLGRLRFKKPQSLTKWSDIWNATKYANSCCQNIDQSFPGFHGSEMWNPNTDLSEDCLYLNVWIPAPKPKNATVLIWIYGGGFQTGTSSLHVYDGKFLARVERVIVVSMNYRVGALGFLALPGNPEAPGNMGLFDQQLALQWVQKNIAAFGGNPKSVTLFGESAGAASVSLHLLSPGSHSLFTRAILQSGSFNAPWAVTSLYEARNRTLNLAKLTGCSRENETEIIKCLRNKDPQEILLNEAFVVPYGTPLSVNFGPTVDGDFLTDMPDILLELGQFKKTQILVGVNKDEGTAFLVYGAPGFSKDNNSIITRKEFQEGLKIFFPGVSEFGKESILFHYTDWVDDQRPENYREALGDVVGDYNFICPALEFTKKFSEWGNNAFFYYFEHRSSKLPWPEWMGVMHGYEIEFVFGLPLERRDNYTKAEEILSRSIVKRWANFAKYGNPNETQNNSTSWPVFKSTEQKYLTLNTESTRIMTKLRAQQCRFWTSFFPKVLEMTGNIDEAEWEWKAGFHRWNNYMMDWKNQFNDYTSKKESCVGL
T1 sequence (P22303 whole entry): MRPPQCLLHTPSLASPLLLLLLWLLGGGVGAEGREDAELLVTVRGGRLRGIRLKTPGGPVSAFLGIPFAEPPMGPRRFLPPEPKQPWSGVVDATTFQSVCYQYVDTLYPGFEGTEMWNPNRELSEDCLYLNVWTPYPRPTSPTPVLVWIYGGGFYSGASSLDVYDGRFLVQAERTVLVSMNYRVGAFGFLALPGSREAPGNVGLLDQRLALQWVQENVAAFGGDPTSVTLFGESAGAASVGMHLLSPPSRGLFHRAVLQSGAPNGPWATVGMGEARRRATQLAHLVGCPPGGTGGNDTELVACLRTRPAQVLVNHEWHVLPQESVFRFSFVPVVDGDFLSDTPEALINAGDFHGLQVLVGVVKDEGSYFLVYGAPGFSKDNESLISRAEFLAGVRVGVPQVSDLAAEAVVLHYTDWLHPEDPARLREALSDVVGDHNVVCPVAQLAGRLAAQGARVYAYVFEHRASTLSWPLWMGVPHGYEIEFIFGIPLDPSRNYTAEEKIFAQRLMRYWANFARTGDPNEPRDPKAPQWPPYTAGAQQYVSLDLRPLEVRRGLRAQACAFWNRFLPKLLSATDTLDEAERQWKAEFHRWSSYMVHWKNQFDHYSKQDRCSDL

CCN(CC)Cc1ccccc1CNC(=O)c1cccc(NC(=O)c2cccc(C(=O)NCCn3cc(CCC[N+]4=C(/C=C/C5=C6Oc7cc(OC(=O)C8CC8)ccc7C=C6CCC5)C(C)(C)c5ccccc54)nn3)c2)c1.[I-]
Activity (Mus musculus [1]): Active | Activity (Mus musculus [2]): Active | Activity (Homo sapiens): inactive | Drug uptake [3]: Active | Activity [4]: Non-Toxic | Drug uptake [5]: Active | inhibition (Acetylcholinesterase [6]): 12.3% | inhibition (HT-22 [7]): Active | fold change (FC) (Cholinesterase [8]): 24 | Stability [9]: Stable | Activity (SH-SY5Y): Active | Activity (Acetylcholinesterase [10]): inactive | Drug uptake [11]: Not Active | Papp at 18 h [12]: 15.5 ×10⁻⁶ cm/s | Drug uptake [13]: Not Active | Drug uptake [14]: Not Active | Activity (Cholinesterase [15]): 50% | Activity (Mus musculus [16]): Active | Activity (Mus musculus [17]): inactive | Activity (Cholinesterase [18]): > 90% | Drug uptake [19]: Active | inhibition (HT-22 [20]): Active | Activity (Cholinesterase [21]): Active | Activity (Cholinesterase [22]): Active | Activity (PC-12): Active
